The term IC50 denotes the midpoint of a concentration-inhibition curve.

Experimental findings from patent publication US10266526B2, “Substituted 1,2,3-triazoles as SMYD inhibitors for treating cancer” (EPIZYME, INC., priority 2014, dated 2019) are described below.

SMYD3, sequence (Q9H7B4 whole entry): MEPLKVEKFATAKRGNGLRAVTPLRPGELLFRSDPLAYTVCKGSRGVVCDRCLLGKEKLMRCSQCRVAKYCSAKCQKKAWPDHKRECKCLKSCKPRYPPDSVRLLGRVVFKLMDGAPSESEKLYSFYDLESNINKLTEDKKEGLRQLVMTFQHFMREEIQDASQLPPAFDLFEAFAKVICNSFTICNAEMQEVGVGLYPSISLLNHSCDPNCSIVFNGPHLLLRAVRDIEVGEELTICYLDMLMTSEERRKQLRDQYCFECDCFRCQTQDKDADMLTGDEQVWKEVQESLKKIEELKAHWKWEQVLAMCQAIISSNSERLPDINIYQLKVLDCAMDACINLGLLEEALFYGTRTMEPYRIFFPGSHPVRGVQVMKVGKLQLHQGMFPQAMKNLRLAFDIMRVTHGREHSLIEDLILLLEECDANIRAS

The assay has as its target SMYD3 (Homo sapiens (Human), UniProt Q9H7B4). Description: SMYD3 biochemical assay (SMYD3 enzyme assay on MEKK2 protein substrate, 3H-SAM scintillation proximity assay). The following applies: read-out: SMYD3 Biochem IC50. The gist of the method:
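Detection used scintillation proximity beads to capture ³H-methylated GST-MEKK2 after quench with 100 uM final cold SAM. The reaction was started by SAM/MEKK2 addition after a 30 min RT compound–enzyme preincubation. Enzyme was tag-free full-length human SMYD3 from E. coli, in buffer of 25 mM Tris-Cl pH 8.0, 1 mM TCEP, 0.005% BSG, 0.005% Tween 20.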
(In general: In a scintillation proximity assay essentially only radioactivity close to the scintillant gives light.)
Take `Cn1c(C(=O)N[C@H]2CC[C@H](NC(=O)CCN)CC2)cc2ccccc21` [compound 245, N-((1r,4r)-4-(3-aminopropanamido)cyclohexyl)-1-methyl-1H-indole-2-carboxamide]: the IC50 was greater than 100 µM. As for `Cn1c(C(=O)N[C@H]2CC[C@H](N)CC2)cc2ccccc21` [compound 246, N-((1r,4r)-4-aminocyclohexyl)-1-methyl-1H-indole-2-carboxamide], the IC50 is greater than 100 µM.

As to `CC(NC(=O)c1cnccc1N)C1CCN(C(=O)[C@H](C)N)CC1` (stereo partly drawn) [compound 247, N-(1-(1-(L-alanyl)piperidin-4-yl)ethyl)-4-aminonicotinamide], the IC50 was greater than 100 µM.

On to `CC(NC(=O)c1cccc2[nH]ccc12)C1CCN(C(=O)[C@H](C)N)CC1` (stereo partly drawn) [compound 248, N-(1-(1-(L-alanyl)piperidin-4-yl)ethyl)-1H-indole-4-carboxamide], for which the IC50 is greater than 100 µM. On to `CC(NC(=O)c1ccnc(O)c1)C1CCN(C(=O)[C@H](C)N)CC1` (stereo partly drawn) [compound 249, N-(1-(1-(L-alanyl)piperidin-4-yl)ethyl)-2-hydroxyisonicotinamide], for which the IC50 was 65.9 µM. On to `CC(NC(=O)c1ccnc(O)c1)C1CCN(C(=O)[C@H](C)N)CC1` (stereo partly drawn) [compound 250, N-(1-(1-(L-alanyl)piperidin-4-yl)ethyl)-2-hydroxyisonicotinamide], for which the IC50 was greater than 100 µM. For the molecule `N[C@H]1CC[C@H](NC(=O)c2ccccn2)CC1` [compound 251, N-((1r,4r)-4-aminocyclohexyl)picolinamide], the IC50 was greater than 100 µM. As for `NCCC(=O)N[C@H]1CC[C@H](NC(=O)c2cnccn2)CC1` [compound 252, N-((1r,4r)-4-(3-aminopropanamido)cyclohexyl)pyrazine-2-carboxamide], the IC50 turned out to be 37.4 µM. Take `CC(NC(=O)c1nccn1C)C1CCN(C(=O)[C@H](C)N)CC1` (stereo partly drawn) [compound 253, N-(1-(1-(L-alanyl)piperidin-4-yl)ethyl)-1-methyl-1H-imidazole-2-carboxamide]: the IC50 was determined as 64.9 µM. Consider `Cc1cnccc1C(=O)NC(C)C1CCN(C(=O)[C@H](C)N)CC1` (stereo partly drawn) [compound 254, N-(1-(1-(L-alanyl)piperidin-4-yl)ethyl)-3-methylisonicotinamide], for which the IC50 is greater than 100 µM. For `Cc1ccncc1C(=O)NC(C)C1CCN(C(=O)[C@H](C)N)CC1` (stereo partly drawn) [compound 255, N-(1-(1-(L-alanyl)piperidin-4-yl)ethyl)-4-methylnicotinamide], the half-inhibitory concentration (IC50) was found to be 73.4 µM.

For `Cc1cncc(C(=O)NC(C)C2CCN(C(=O)[C@H](C)N)CC2)c1` (stereo partly drawn) [compound 256, N-(1-(1-(L-alanyl)piperidin-4-yl)ethyl)-5-methylnicotinamide], the IC50 is 61.6 µM. For `Cc1ccc(C(=O)NC(C)C2CCN(C(=O)[C@H](C)N)CC2)cn1` (stereo partly drawn) [compound 257, N-(1-(1-(L-alanyl)piperidin-4-yl)ethyl)-6-methylnicotinamide], the IC50 is greater than 100 µM. For the molecule `Cc1nscc1C(=O)NC(C)C1CCN(C(=O)[C@H](C)N)CC1` (stereo partly drawn) [compound 258, N-(1-(1-(L-alanyl)piperidin-4-yl)ethyl)-3-methylisothiazole-4-carboxamide], the 50% inhibitory concentration (IC50) is greater than 100 µM. Regarding `CC(NC(=O)c1ccn(C)n1)C1CCN(C(=O)[C@H](C)N)CC1` (stereo partly drawn) [compound 259, N-(1-(1-(L-alanyl)piperidin-4-yl)ethyl)-1-methyl-1H-pyrazole-3-carboxamide], the IC50 was greater than 100 µM. The value for `CC(NC(=O)c1cc(C(C)(C)C)nn1C)C1CCN(C(=O)[C@H](C)N)CC1` (stereo partly drawn) [compound 260, N-(1-(1-(L-alanyl)piperidin-4-yl)ethyl)-3-(tert-butyl)-1-methyl-1H-pyrazole-5-carboxamide] was greater than 100 µM. The value for `COc1cncc(C(=O)NC(C)C2CCN(C(=O)[C@H](C)N)CC2)n1` (stereo partly drawn) [compound 261, N-(1-(1-(L-alanyl)piperidin-4-yl)ethyl)-6-methoxypyrazine-2-carboxamide] was greater than 100 µM; that for `CC(NC(=O)[C@H]1CC[C@H](N)CC1)C1CCN(C(=O)[C@H](C)N)CC1` (stereo partly drawn) [compound 262, (1r,4S)-N-(1-(1-(L-alanyl)piperidin-4-yl)ethyl)-4-aminocyclohexane-1-carboxamide] was greater than 100 µM; that for `CC(NC(=O)c1ccc(Cl)cc1C(F)(F)F)C1CCN(C(=O)[C@H](C)N)CC1` (stereo partly drawn) [compound 263, N-(1-(1-(L-alanyl)piperidin-4-yl)ethyl)-4-chloro-2-(trifluoromethyl)benzamide] was greater than 100 µM.

For the molecule `NCCC(=O)N[C@H]1CC[C@H](NC(=O)c2cc[n+]([O-])cc2)CC1` [compound 264, 4-(((1r,4r)-4-(3-aminopropanamido)cyclohexyl)carbamoyl)pyridine 1-oxide], the IC50 is greater than 100 µM. As to `CC(NC(=O)c1cccc(F)n1)C1CCN(C(=O)[C@H](C)N)CC1` (stereo partly drawn) [compound 265, N-(1-(1-(L-alanyl)piperidin-4-yl)ethyl)-6-fluoropicolinamide], the IC50 was greater than 100 µM.

Consider `CC(NC(=O)c1cccc2c1OC(F)(F)O2)C1CCN(C(=O)[C@H](C)N)CC1` (stereo partly drawn) [compound 266, N-(1-(1-(L-alanyl)piperidin-4-yl)ethyl)-2,2-difluorobenzo[d][1,3]dioxole-4-carboxamide], for which the IC50 was greater than 100 µM.

Consider `CC(NC(=O)c1ccncc1F)C1CCN(C(=O)[C@H](C)N)CC1` (stereo partly drawn) [compound 267, N-(1-(1-(L-alanyl)piperidin-4-yl)ethyl)-3-fluoroisonicotinamide], for which the 50% inhibitory concentration (IC50) was greater than 100 µM. For `CC(NC(=O)c1c[nH]c2ccccc12)C1CCN(C(=O)[C@H](C)N)CC1` (stereo partly drawn) [compound 268, N-(1-(1-(L-alanyl)piperidin-4-yl)ethyl)-1H-indole-3-carboxamide], the IC50 was greater than 100 µM.

Regarding `N[C@H]1CC[C@H](NC(=O)c2ncccn2)CC1` [compound 269, N-((1r,4r)-4-aminocyclohexyl)pyrimidine-2-carboxamide], the IC50 was greater than 100 µM.

On to `NCCC(=O)N[C@H]1CC[C@H](NC(=O)c2ccc(O)nn2)CC1` [compound 270], for which the IC50 was greater than 100 µM. Take `N[C@H]1CC[C@H](NC(=O)c2ccc(O)nn2)CC1` [compound 271, N-((1r,4r)-4-aminocyclohexyl)-6-hydroxypyridazine-3-carboxamide]: the IC50 was greater than 100 µM. In the case of `NCCC(=O)N[C@H]1CC[C@H](NC(=O)c2ccc3cc[nH]c3c2)CC1` [compound 272, N-((1r,4r)-4-(3-aminopropanamido)cyclohexyl)-1H-indole-6-carboxamide], the IC50 amounted to 37.2 µM. On to `Cc1c(C(=O)N[C@H]2CC[C@H](N)CC2)nnn1-c1ccccc1` [compound 273, N-((1r,4r)-4-aminocyclohexyl)-5-methyl-1-phenyl-1H-1,2,3-triazole-4-carboxamide], for which the IC50 is greater than 100 µM.

Take `Cc1cc(C)c(C(=O)NC(C)C2CCN(C(=O)[C@H](C)N)CC2)c(=O)[nH]1` (stereo partly drawn) [compound 274, N-(1-(1-(L-alanyl)piperidin-4-yl)ethyl)-4,6-dimethyl-2-oxo-1,2-dihydropyridine-3-carboxamide]: the IC50 was greater than 100 µM.

As to `Cn1ncc2ccc(C(=O)N[C@H]3CC[C@H](N)CC3)cc21` [compound 275, N-((1r,4r)-4-aminocyclohexyl)-1-methyl-1H-indazole-6-carboxamide], the IC50 is greater than 100 µM. On to `COc1ccc2cc(C(=O)N[C@H]3CC[C@H](N)CC3)ccc2c1` [compound 276, N-((1r,4r)-4-aminocyclohexyl)-6-methoxy-2-naphthamide], for which the IC50 is greater than 100 µM. `N[C@H]1CC[C@H](NC(=O)c2cc(=O)c3ccccc3o2)CC1` [compound 277, N-((1r,4r)-4-aminocyclohexyl)-4-oxo-4H-chromene-2-carboxamide]: the IC50 was greater than 100 µM.

With `N[C@H]1CC[C@H](NC(=O)c2ccc(-n3cnnc3)cc2)CC1` [compound 278, N-((1r,4r)-4-aminocyclohexyl)-4-(4H-1,2,4-triazol-4-yl)benzamide], the IC50 is greater than 100 µM.

In the case of `NCCC(=O)N[C@H]1CC[C@H](NC(=O)c2ccc(N3CCCC3)cc2)CC1` [compound 279, N-((1r,4r)-4-(3-aminopropanamido)cyclohexyl)-4-(pyrrolidin-1-yl)benzamide], the IC50 was found to be 43.6 µM.

Consider `N[C@H]1CC[C@H](NC(=O)c2ccc(N3CCCC3)cc2)CC1` [compound 280, N-((1r,4r)-4-aminocyclohexyl)-4-(pyrrolidin-1-yl)benzamide], for which the IC50 was 48 µM. Then `NCCC(=O)N[C@H]1CC[C@H](NC(=O)c2ccc3ncsc3c2)CC1` [compound 281, N-((1r,4r)-4-(3-aminopropanamido)cyclohexyl)benzo[d]thiazole-6-carboxamide], with 29 µM; and `CC(NC(=O)c1ccc2[nH]ccc2c1)C1CCN(C(=O)[C@H](C)N)CC1` (stereo partly drawn) [compound 283, N-(1-(1-(L-alanyl)piperidin-4-yl)ethyl)-1H-indole-5-carboxamide], with greater than 100 µM; and `CC(NC(=O)c1ccc2c(c1)OC(F)(F)O2)C1CCN(C(=O)[C@H](C)N)CC1` (stereo partly drawn) [compound 284, N-(1-(1-(L-alanyl)piperidin-4-yl)ethyl)-2,2-difluorobenzo[d][1,3]dioxole-5-carboxamide], with greater than 100 µM.

With `N[C@H]1CC[C@H](NC(=O)c2ccc3c(c2)OC(F)(F)O3)CC1` [compound 285, N-((1r,4r)-4-aminocyclohexyl)-2,2-difluorobenzo[d][1,3]dioxole-5-carboxamide], the IC50 was found to be 69.1 µM.

For the molecule `N[C@H]1CC[C@H](NC(=O)c2ccc3c(c2)no[n+]3[O-])CC1` [compound 286, 5-(((1r,4r)-4-aminocyclohexyl)carbamoyl)benzo[c][1,2,5]oxadiazole 1-oxide], the concentration for half-maximal inhibition (IC50) was greater than 100 µM.

Turning to `N[C@H]1CC[C@H](NC(=O)c2ccc3nonc3c2)CC1` [compound 287, N-((1r,4r)-4-aminocyclohexyl)benzo[c][1,2,5]oxadiazole-5-carboxamide], the IC50 was greater than 100 µM. `NCCC(=O)N[C@H]1CC[C@H](NC(=O)c2cnccc2N)CC1` [compound 288, 4-amino-N-((1r,4r)-4-(3-aminopropanamido)cyclohexyl)nicotinamide]: the IC50 is greater than 100 µM.
